The assay addresses T1, SIRT2 (Homo sapiens, UniProt Q8IXJ6).
T1 construct: recombinant active enzymes SIRT1, SIRT2, and the catalytically active fragment of SIRT3
T1 sequence (Q8IXJ6 1-389): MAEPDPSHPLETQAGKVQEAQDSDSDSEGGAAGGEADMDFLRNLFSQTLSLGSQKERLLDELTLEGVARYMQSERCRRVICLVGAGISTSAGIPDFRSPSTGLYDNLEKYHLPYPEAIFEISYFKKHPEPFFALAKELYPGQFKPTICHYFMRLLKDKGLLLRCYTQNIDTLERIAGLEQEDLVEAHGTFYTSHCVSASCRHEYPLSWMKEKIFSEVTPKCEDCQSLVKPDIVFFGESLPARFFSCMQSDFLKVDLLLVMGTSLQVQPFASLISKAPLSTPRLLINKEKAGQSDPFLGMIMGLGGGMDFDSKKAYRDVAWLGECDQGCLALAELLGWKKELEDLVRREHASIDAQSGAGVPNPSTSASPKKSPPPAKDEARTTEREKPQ
In words: Fluor-de-Lys biochemical sirtuin deacetylation assay, SIRT2. Particulars: 10 μM.

What is called inhibition is the change of the read-out against control, counted positive when it falls. A low value points to little suppression.

Where a name gives a salt, the structure may show the parent alone.

Regarding `CC(=O)c1ccc(C(C)Oc2cccc(C(=O)Nc3ccc(Br)cc3)c2)cc1` (stereo not drawn) [Compound 216Ba, 3-(1-(4-acetylphenyl)ethoxy)-N-(4-bromophenyl)benzamide], the inhibition at 10 µM was found to be 85%. Take `CC(=O)c1ccc(C(C)Oc2cccc(C(=O)Nc3ccc(S(C)(=O)=O)cc3)c2)cc1` (stereo not drawn) [Compound 216Bb, 3-(1-(4-acetylphenyl)ethoxy)-N-(4-(methylsulfonyl)phenyl)benzamide]: at 10 µM the inhibition was 70%.

For `CC(=O)c1ccc(C(C)Oc2cccc(C(=O)Nc3ccc(C(F)(F)F)cc3)c2)cc1` (stereo not drawn) [Compound 216Bc, 3-(1-(4-acetylphenyl)ethoxy)-N-(4-(trifluoromethyl)phenyl)benzamide], the inhibition at 10 µM came out at 77%. Next, `C[C@@H](Oc1cccc(C(=O)Nc2ccc(C#N)cc2)c1)c1ccc(F)cc1` [Compound 216l, (R)—N-(4-cyanophenyl)-3-(1-(4-fluorophenyl)ethoxy)benzamide]: 88%. Consider `C[C@H](Oc1cccc(C(=O)Nc2ccc(C#N)cc2)c1)c1ccc(F)cc1` [Compound 216o, (S)—N-(4-cyanophenyl)-3-(1-(4-fluorophenyl)ethoxy)benzamide], for which the inhibition at 10 µM worked out at 54%.

Molecule `CC(C)(Oc1cccc(C(=O)Nc2ccc(C#N)cc2)c1)c1ccc(F)cc1` [Compound 216p, N-(4-cyanophenyl)-3-((2-(4-fluorophenyl)propan-2-yl)oxy)benzamide] had an inhibition at 10 µM of 55%. Next, `C=CCOc1cc(OCc2ccc(C#N)cc2)cc(C(=O)Nc2ccc(C#N)cc2)c1` [Compound 216v, 3-(allyloxy)-5-((4-cyanobenzyl)oxy)-N-(4-cyanophenyl)benzamide]: 11%. To `N#Cc1ccc(COc2cc(OC[C@@H](O)CO)cc(C(=O)Nc3ccc(C#N)cc3)c2)cc1` [Compound 216x, (S)-3-((4-cyanobenzyl)oxy)-N-(4-cyanophenyl)-5-(2,3-dihydroxypropoxy)benzamide] belongs 25%. To `CCN(CC)CCOc1cc(OCc2ccc(C#N)cc2)cc(C(=O)Nc2ccc(C#N)cc2)c1` [Compound 216y, 3-((4-cyanobenzyl)oxy)-N-(4-cyanophenyl)-5-(2-(diethylamino)ethoxy)benzamide] belongs 19%; to `N#Cc1ccc(NC(=O)c2cccc(NCc3ccc(F)cc3)c2)nc1` [Compound 221b, N-(5-cyanopyridin-2-yl)-3-((4-fluorobenzyl)amino)benzamide], 28%; to `CN(Cc1ccc(C#N)cc1)Cc1cccc(C(=O)Nc2ccc(C#N)cc2)c1` [Compound 225a, 3-(((4-cyanobenzyl)(methyl)amino)methyl)-N-(4-cyanophenyl)benzamide], 63%. `N#Cc1ccc(NC(=O)c2cccc(CN(Cc3ccc(F)c(F)c3)C3CC3)c2)cc1` [Compound 225d, N-(4-cyanophenyl)-3-((cyclopropyl(3,4-difluorobenzyl)amino)methyl)benzamide hydrochloride] registered an inhibition at 10 µM of 55%.

Take `N#Cc1ccc(NC(=O)c2cccc(CN(Cc3ccc(C(F)(F)F)cc3)C3CC3)c2)cc1` [Compound 225e, N-(4-cyanophenyl)-3-((cyclopropyl(4-(trifluoromethyl)benzyl)amino)methyl)-benzamide hydrochloride]: the inhibition at 10 µM is 49%. Next, `N#Cc1ccc(NC(=O)c2cccc(CN(Cc3cc(F)cc(F)c3)C3CC3)c2)cc1` [Compound 225f, N-(4-cyanophenyl)-3-((cyclopropyl(3,5-difluorobenzyl)amino)methyl)benzamide hydrochloride]: 64%; `N#Cc1ccc(NC(=O)c2cccc(CN(Cc3ccc(C#N)nc3)C3CC3)c2)cc1` [Compound 225g, N-(4-cyanophenyl)-3-((((6-cyanopyridin-3-yl)methyl)(cyclopropyl)amino)-methyl)benzamide hydrochloride]: 44%. In the case of `CC(C)(C)N(Cc1ccc(C#N)cc1)Cc1cccc(C(=O)Nc2ccc(C#N)cc2)c1` [Compound 225h, 3-((tert-butyl(4-cyanobenzyl)amino)methyl)-N-(4-cyanophenyl)benzamide hydrochloride], testing at 10 µM gave an inhibition of 28%. In turn, `N#Cc1ccc(NC(=O)c2cccc(CN(Cc3ccc(Br)cc3)C3CC3)c2)cc1` [Compound 225l, 3-(((4-bromobenzyl)(cyclopropyl)amino)methyl)-N-(4-cyanophenyl)benzamide hydrochloride] had an inhibition at 10 µM of 37%.

Take `N#Cc1ccc(NC(=O)c2cccc3c2CCN(Cc2ccc(F)c(F)c2)C3)cc1` [Compound 225m, N-(4-cyanophenyl)-2-(3,4-difluorobenzyl)-1,2,3,4-tetrahydroisoquinoline-5-carboxamide hydrochloride]: the inhibition at 10 µM was found to be 65%. Next, `CN(C(=O)c1cncc(CN(Cc2ccc(F)c(F)c2)C2CC2)c1)c1ccc(C#N)cc1` [Compound 225n, N-(4-cyanophenyl)-5-((cyclopropyl(3,4-difluorobenzyl)amino)methyl)-N-methylnicotinamide hydrochloride]: 0%. Turning to `N#Cc1ccc(CN(Cc2cncc(C(=O)Nc3ccc(Cl)cc3)c2)C2CC2)cc1` [Compound 225o, N-(4-chlorophenyl)-5-(((4-cyanobenzyl)(cyclopropyl)amino)methyl)nicotinamide hydrochloride], the inhibition at 10 µM came to 8%. To `CN(C(=O)c1cncc(CN(Cc2ccc(C#N)cc2)C2CC2)c1)c1ccc(Cl)cc1` [Compound 225p, N-(4-chlorophenyl)-5-(((4-cyanobenzyl)(cyclopropyl)amino)methyl)-N-methylnicotinamide hydrochloride] belongs 0%; to `N#Cc1ccc(NC(=O)c2cccc(CN3CCc4cc(Br)ccc4C3)c2)cc1` [Compound 225q, 3-((6-bromo-3,4-dihydroisoquinolin-2(1H)-yl)methyl)-N-(4-cyanophenyl)benzamide hydrochloride], 80%. Next, `CC(=O)c1ccc(CN(Cc2cncc(C(=O)Nc3ccc(C#N)cc3)c2)C2CC2)cc1` [Compound 225r, 5-(((4-acetylbenzyl)(cyclopropyl)amino)methyl)-N-(4-cyanophenyl)nicotinamide hydrochloride]: 10%. Next, `CC(=O)c1ccc(CN(Cc2cncc(C(=O)N(C)c3ccc(C#N)cc3)c2)C2CC2)cc1` [Compound 225s, 5-(((4-acetylbenzyl)(cyclopropyl)amino)methyl)-N-(4-cyanophenyl)-N-methylnicotinamide hydrochloride]: 3%; `O=C(Nc1ccc(Cl)cc1)c1cncc(CN(Cc2ccc(F)c(F)c2)C2CC2)c1` [Compound 225t, N-(4-chlorophenyl)-5-((cyclopropyl(3,4-difluorobenzyl)amino)methyl)nicotinamide hydrochloride]: 9%. In turn, `CC(=O)c1ccc(NC(=O)c2cncc(CN(Cc3ccc(F)c(F)c3)C3CC3)c2)cc1` [Compound 225u, N-(4-acetylphenyl)-5-((cyclopropyl(3,4-difluorobenzyl)amino)methyl)nicotinamide hydrochloride] had an inhibition at 10 µM of 5%.

`O=C(Nc1ccc(C(F)(F)F)cc1)c1cncc(CN(Cc2ccc(F)c(F)c2)C2CC2)c1` [Compound 225v, 5-((cyclopropyl(3,4-difluorobenzyl)amino)methyl)-N-(4-(trifluoromethyl)phenyl)-nicotinamide hydrochloride]: the inhibition at 10 µM was 3%.
